The record followed here is ChEMBL document CHEMBL1133459, “Adenosine kinase inhibitors. 1. Synthesis, enzyme inhibition, and antiseizure activity of 5-iodotubercidin analogues” (J Med Chem, 2000).

The species entered for assay [1] is Rattus norvegicus. As to the kind of experiment: Evaluated for antiseizure activity in rat maximal electric shock (MES) seizure model and represented as ED50. It is filed as functional.
Assay [2] deals with Adenosine kinase (Homo sapiens, UniProt P55263). Put plainly: Inhibition of recombinant human adenosine kinase.

Where only a bound is given, the exact number is not on record here.

Sequence of Adenosine kinase (P55263 whole entry): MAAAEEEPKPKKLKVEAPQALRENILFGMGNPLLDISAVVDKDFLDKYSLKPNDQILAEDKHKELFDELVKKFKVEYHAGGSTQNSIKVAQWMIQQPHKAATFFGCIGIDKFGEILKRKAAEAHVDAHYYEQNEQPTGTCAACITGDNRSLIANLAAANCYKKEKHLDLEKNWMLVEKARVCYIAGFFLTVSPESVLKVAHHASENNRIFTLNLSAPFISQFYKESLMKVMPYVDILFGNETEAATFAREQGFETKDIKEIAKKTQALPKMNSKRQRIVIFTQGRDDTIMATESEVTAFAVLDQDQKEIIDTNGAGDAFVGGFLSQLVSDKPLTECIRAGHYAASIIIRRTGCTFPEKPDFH

For the compound `C[C@H]1O[C@@H](n2cc(Br)c3c(N)ncnc32)[C@H](O)[C@@H]1O`, in assay [1], the 50% effective dose (ED50) – broadly, the dose at which the effect has come halfway, by size or by number of responders – was below 3.7 mg/kg.

`OC[C@H]1O[C@@H](n2cc(I)c3c(Cl)ncnc32)[C@H](O)[C@@H]1O`: the IC50 (as a rule, the concentration at which inhibition is half-maximal) in assay [2] came to 24 nM.

Consider `Nc1ncnc2c1c(Cl)cn2[C@@H]1O[C@H](CO)[C@@H](O)[C@H]1O`, for which, in assay [2], the half-maximal inhibitory concentration (IC50) is 210 nM.

With `C[C@H]1O[C@@H](n2cc(I)c3c(=S)[nH]cnc32)[C@H](O)[C@@H]1O`, the concentration for half-maximal inhibition (IC50) in assay [2] is 6500 nM.

As to `C[C@H]1O[C@@H](n2cc(I)c3c(Cl)ncnc32)[C@H](O)[C@@H]1O`, in assay [2], the IC50 is 3 nM.

In the case of `[N-]=[N+]=NC[C@H]1O[C@@H](n2cc(I)c3c(N)ncnc32)[C@H](O)[C@@H]1O`, the IC50 in assay [2] is 35 nM.

`NC[C@H]1O[C@@H](n2cc(I)c3c(Cl)ncnc32)[C@H](O)[C@@H]1O`: in assay [2], the concentration for half-maximal inhibition (IC50) was 0.1 nM.

Turning to `C[C@H]1O[C@@H](n2cc(I)c3c(SCc4ccc([N+](=O)[O-])cc4)ncnc32)[C@H](O)[C@@H]1O`, the IC50 in assay [2] worked out at 2000 nM.

Regarding `CSc1cn([C@@H]2O[C@H](C)[C@@H](O)[C@H]2O)c2ncnc(N)c12`, the IC50 in assay [2] was 1350 nM.

In turn, `C[C@H]1O[C@@H](n2cc(I)c3c(N)ncnc32)[C@H](O)[C@@H]1O` [5-IODO,5'-DEOXYTUBERCIDIN] gave a median effective dose (ED50) in assay [1] of 0.3 mg/kg.

For the compound `CSc1cn([C@@H]2O[C@H](C)[C@@H](O)[C@H]2O)c2ncnc(Cl)c12`, in assay [2], the half-inhibitory concentration (IC50) is 70 nM.

Regarding `CNc1ncnc2c1c(I)cn2[C@@H]1O[C@H](CO)[C@@H](O)[C@H]1O`, the IC50 in assay [2] was 1200 nM.

On to `Nc1ncnc2c1c(Br)cn2[C@@H]1O[C@H](CO)[C@@H](O)[C@H]1O`, for which the IC50 in assay [2] turned out to be 120 nM.

Take `Cc1cn([C@@H]2O[C@H](C)[C@@H](O)[C@H]2O)c2ncnc(Cl)c12`: in assay [2], the IC50 amounted to 535 nM.

On to `[N-]=[N+]=NC[C@H]1O[C@@H](n2cc(Br)c3c(Cl)ncnc32)[C@H](O)[C@@H]1O`, for which, in assay [2], the concentration for half-maximal inhibition (IC50) came to 100 nM.

Regarding `CC[C@H]1O[C@@H](n2cc(Br)c3c(N)ncnc32)[C@H](O)[C@@H]1O`, the half-maximal inhibitory concentration (IC50) in assay [2] was 500 nM.

For the compound `NC[C@H]1O[C@@H](n2ccc3c(N)ncnc32)[C@H](O)[C@@H]1O`, the IC50 in assay [2] was found to be 13000 nM.

As to `C[C@H]1O[C@@H](n2cc(I)c3c(SCc4ccccc4)ncnc32)[C@H](O)[C@@H]1O`, the half-inhibitory concentration (IC50) in assay [2] amounted to 1000 nM.

Take `COC[C@H]1O[C@@H](n2cc(I)c3c(N)ncnc32)[C@H](O)[C@@H]1O`: the half-maximal inhibitory concentration (IC50) in assay [2] stood at 1200 nM.

`C=CCSc1ncnc2c1c(I)cn2[C@@H]1O[C@H](C)[C@@H](O)[C@H]1O`: the IC50 in assay [2] was determined as 2800 nM.

For `NC[C@H]1O[C@@H](n2cc(Br)c3c(N)ncnc32)[C@H](O)[C@@H]1O`, in assay [2], the IC50 turned out to be 0.2 nM. In assay [1], this compound showed a 50% effective dose (ED50) of 4.2 mg/kg.

For the compound `Nc1ncnc2c1ccn2[C@@H]1O[C@H](CO)[C@@H](O)[C@H]1O` [TUBERCIDIN], the IC50 in assay [2] came out at 10000 nM.

Compound `Nc1ncnc2c1c(I)cn2[C@@H]1O[C@H](CO)[C@@H](O)[C@H]1O` [IODOTUBERCIDIN] returned an ED50 in assay [1] of 6 mg/kg.

For the compound `CSc1ncnc2c1c(I)cn2[C@@H]1O[C@H](C)[C@@H](O)[C@H]1O`, the half-maximal inhibitory concentration (IC50) in assay [2] came out at 45 nM.

In the case of `C[C@H]1O[C@@H](n2cc(C#N)c3c(N)ncnc32)[C@H](O)[C@@H]1O`, the 50% inhibitory concentration (IC50) in assay [2] was determined as 310 nM.

On to `CC[C@H]1O[C@@H](n2cc(I)c3c(N)ncnc32)[C@H](O)[C@@H]1O`, for which, in assay [2], the 50% inhibitory concentration (IC50) was determined as 60 nM.

Regarding `C=C[C@H]1O[C@@H](n2cc(I)c3c(N)ncnc32)[C@H](O)[C@@H]1O`, the IC50 in assay [2] came to 100 nM.

As to `C[C@H]1O[C@@H](n2cc(Br)c3c(Cl)ncnc32)[C@H](O)[C@@H]1O`, the half-inhibitory concentration (IC50) in assay [2] was 50 nM.

Take `CCCCSc1ncnc2c1c(I)cn2[C@@H]1O[C@H](C)[C@@H](O)[C@H]1O`: in assay [2], the half-inhibitory concentration (IC50) was determined as 1000 nM.

For the compound `N#Cc1cn([C@@H]2O[C@H](CO)[C@@H](O)[C@H]2O)c2ncnc(N)c12` [TOYOCAMYCIN], the IC50 in assay [2] was determined as 310 nM.

As for `NC[C@H]1O[C@@H](n2cnc3c(N)ncnc32)[C@H](O)[C@@H]1O`, in assay [2], the IC50 was 170 nM.

For the compound `[N-]=[N+]=NC[C@H]1O[C@@H](n2cc(Br)c3c(N)ncnc32)[C@H](O)[C@@H]1O`, the concentration for half-maximal inhibition (IC50) in assay [2] came out at 63 nM.

Regarding `NC[C@H]1O[C@@H](n2cc(I)c3c(N)ncnc32)[C@H](O)[C@@H]1O`, in assay [2], the concentration for half-maximal inhibition (IC50) was 0.6 nM. The 50% effective dose (ED50) in assay [1] is 7.1 mg/kg.

For the compound `[N-]=[N+]=NC[C@H]1O[C@@H](n2cc(I)c3c(Cl)ncnc32)[C@H](O)[C@@H]1O`, the IC50 in assay [2] came to 9 nM.
